According to patent US20110152341A1, “CLEAVAGE OF B-AMYLOID PRECURSOR PROTEIN” (PROBIODRUG AG, priority 2009, published 2011):

Test system: human meprin-β (hMPβ) and human APP in HEK293 cells
Assay: Aβ secreted by HEK293 cells after transient overexpression of human meprin-β and human APP, ELISA
Format: cell-based
Conditions: 20 μM actinonin (1% DMSO), 24 h, HEK293, ELISA (IBL) with antibody 6E10
Method: The sequence of human APP was cloned into the vector pcDNA3.1 (Invitrogen) and various mutations were inserted. The resulting clones were named pcDNA-hAPP (for wildtyp APP), pcDNA-hAPPsw (for mutation K595N, M596L) and pcDNA-hAPP/E3Q (for mutation E599Q). For transient overexpression of human meprin and human APP the cells were cultured in 6-well dishes until 90% confluence, transfected with 2 μg of vector with meprin and 2 μg of one of the described APP-vectors per well using Lipofectamin2000 (Invitrogen) according to manufacturer's manual. Control samples were transfected with pcDNA3.1. After 24 h the solution was replaced by medium free of serum and phenolred. Medium was collected 24 h later and supplemented with a protease inhibitor cocktail (complete, Mini, Roche), centrifuged at 500×g and 10 000×g, subsequently to remove cells and debris. The supernatant was stored at −80 until analysis by ELISA (IBL) and urea western-blot for identification of liberated Aβ species.
24 h after co-transfection of HEK293 cells with human APP and meprin (as described for example 4) the medium was replaced by medium free of serum and phenolred supplemented with 20 μM Actinonin (1% DMSO). 24 hours later medium was collected, supplemented with inhibitor cocktail (complete, Mini, Roche), centrifuged at 500×g and 10 000×g, subsequently to remove cells and debris. […]

Q: Which “Effect on the increase of Aβ secretion after overexpression of hAPP and hMPβ” value does the source give for `CCCCC[C@H](CC(=O)NO)C(=O)N[C@H](C(=O)N1CCC[C@H]1CO)C(C)C` [Actinonin] here?
A: The value was “reduced to almost the basal level”.
